Test results as given in patent US20220087990A1, “APPLICATION OF RIFAMYCIN-QUINOLIZIDONE CONJUGATE MOLECULE AND PHARMACEUTICALLY ACCEPTABLE SALT THEREOF” (priority 2019, published 2022).
Read-outs that look alike come from different tables or passages of the source.

Key:
Format in all cases: in vivo, Staphylococcus aureus; Balb/c mice
[1] = test system: S. aureus CB1406, CB1823, CB1840 and CB1857; details: rebound dosing regimen, mean over strains
Protocol: (§1) Test Drug: rifamycin-quinolizidone conjugate molecule I was provided by TenNor Therapeutics, Ltd., and was stored at −20° C. Other test compounds and reagents are commercially available. […] For remaining test agents, aqueous vehicles of sterile water, 5% sodium bicarbonate or 0.9% normal saline were added to the compound shown in formula I. The rifamycin-quinolizidone conjugate molecule formulation shown in formula I was administered at 30 mg/kg.
(§2) Bacteria: The bacteria used were biofilm forming Staphylococcus aureus strains. These were a wild-type parent biofilm strain CB1406 and it's isogenic fluoroquinoline-resistant derivatives CB1823 (parC^S80F), CB1840 (norA^up) and CB1857 (parC^S80F30 norA^up). Minimal inhibit concentrations (MICs) were determined by broth microdilution assays recommended by CLSI.
(§3) Test animals: female 5-6 week old Balb/c mice were used in this embodiment. The mice had free access to food and water during the course of this test and animal procedures were compliant with UNTHSC Institutional Animal Care and Use Committee (IACUC) guidelines.
(§4) In vitro preparation of colonized implants: Teflon venous catheters (14-Guage AbboCath-T #271-1000 or Braun Introcan #425 2594) were cut into 1 cm segments, sterilized by soaking in 70% ethanol for 15 minutes, dried under UV light for 20 minutes followed by aseptic placement in sterile 1.5 mL polypropylene tubes warmed to 37° C. Inocula were prepared by growing overnight broth cultures, which were diluted in 1:10 in tryptic soy broth plus 0.25% glucose (TSBG) and incubated with 250 rpm at 37° C. for 1 hour. Cultures were diluted to 1.0E+0^6 CFU/mL in 37° C. TSBG, 1 mL was added to each catheter tube, incubated at 37° C. without shaking for an additional 2.5 hours, and then cooled to 18° C. to slow growth until implant surgeries were completed.
(§5) Formation and treatments of subcutaneous implant infections: the mice were anesthetized with isoflurane vapors (4 L/min). Each flank was shaved, sterilized with ethanol/betadine and two 3 mm incisions made. Subcutaneous pockets were excavated, then catheter segments pre-colonized with adherent bacteria inserted into the pockets closed with surgical staples. The mice were returned to their cages and regularly monitored for adverse reactions. Treatments were initiated one week post surgery (bacterial colonization and biofilm formation) twice daily by intraperitoneal injections (IP) for 7 days, 7 days treatment plus a 7 days rebound period with no treatment and 7 days treatment plus 7 days rebound+7 days re-treatment with 5 mice (total 10 implants) per treatment or sampling group. Implant-associated bacteria were monitored by sampling colonized catheter segments during the course of implant surgeries and at regular intervals for up to 28 days post infection.
(§6) Sampling of infected implants: infected mice were euthanized by CO2 inhalation, then flanks were sterilized with 70% ethanol, and the infected catheter segments were excised into 1 mL of phosphate buffered saline pH 7.2 (1×PBS). Bacteria that adhered to the internal surfaces of explanted catheter segments were mechanically disrupted (aseptically) by repeated draws/dispenses of 200 μL 1×PBS from a micropipette tip inserted into catheter lumens, followed by 5 min vortexing at high speed. Explanted samples were then snap frozen in dry ice/ethanol and stored at −80° C. until CFU counts were determined.
(§7) CFU count determination: the catheters were rapidly thawed in a 37° C. water bath, and vortexed for 2 minutes, serially diluted and spotted (8 μL) on agar plates. Viable cell counts for efficacy were determined by plating on drug free Charcoal or MHII agar plates. […] The detection limit for all CFU determinations was less than or equal to 2.09 log10 CFU/implant.
(§8) The counts were multiplied by the serial dilution factor. The resulting raw values were converted to log10 CFU for calculation of means and standard deviations.

[2] = test system: Staphylococcus aureus CB1406 (wild type); details: for mean Log10 CFU/catheter / log10 CFU reduction in bacterial counts: CB1406; for log10 CFU reduction in bacterial counts: rebound regimen
Protocol: as §1, §2, §3, §4, §5, §6, §7, §8

[3] = test system: quinolone-resistant Staphylococcus aureus CB1823 (parC^S80F); details: for log10 CFU reduction in bacterial counts: rebound regimen
Protocol: as §1, §2, §3, §4, §5, §6, §7, §8

[4] = test system: quinolone-resistant Staphylococcus aureus CB1840 (norA^up); details: for log10 CFU reduction in bacterial counts: rebound regimen
Protocol: as §1, §2, §3, §4, §5, §6, §7, §8

[5] = test system: Staphylococcus aureus CB1857 (parC^S80F+norA^up); assay: Mouse subcutaneous catheter implant biofilm infection model
Protocol: as §1, §2, §3, §4, §5, §6, §7, §8

[6] = test system: quinolone-resistant Staphylococcus aureus CB1823 (parC^S80F); details: I 30 mg/kg, rifampicin+levofloxacin 20+25 mg/kg
[7] = test system: quinolone-resistant Staphylococcus aureus CB1840 (norA^up); details: I 30 mg/kg, rifampicin+levofloxacin 20+25 mg/kg
[8] = following additional 7 treatment days
[9] = rebound treatment regimen, Day 21 (7 days of rebound)
[10] = rebound treatment regimen, Day 28 (7 days of re-treatment)
[11] = 14-day treatment regimen, Day 7 (initiation of treatment)
[12] = rebound treatment regimen, Day 7 (initiation of treatment)
[13] = rebound treatment regimen, Day 14 (after 7 days of administration), IP bid, I 30 mg/kg, rifampicin+levofloxacin 20+25 mg/kg
[14] = 14-day treatment regimen, Day 21, IP bid

With `CO[C@H]1/C=C/O[C@@]2(C)Oc3c(C)c(O)c4c(O)c(c(/C=N/N5CCC(N(C)C6([C@@H]7CCN(c8c(F)cn9c(=O)c(C(=O)O)cc(C%10CC%10)c9c8C)C7)CC6)CC5)c(O)c4c3C2=O)NC(=O)/C(C)=C\C=C\[C@H](C)[C@H](O)[C@@H](C)[C@@H](O)[C@@H](C)[C@H](OC(C)=O)[C@@H]1C` [I] the “Mean Log10 CFU reduction” value ([1]; following 7 days of re-treatment) was 4.6 Log10 CFU, the “Mean Log10 CFU reduction” value ([1]; following 7 days of treatment) was 2.4 Log10 CFU and the “Mean Log10 CFU reduction” value ([1]; following 7 days untreated (rebound)) was 4.6 Log10 CFU. The “mean Log10 CFU/catheter” value ([2]; 14-day treatment regimen, Day 7 (before treatment)) was 6.82 Log10 CFU/catheter, the “log10 CFU reduction in bacterial counts” value ([2]; following 7 days of treatment) was 2.1 log10 CFU and the “log10 CFU reduction in bacterial counts” value ([2]; following 7 days untreated) was 4.6 log10 CFU. For the same molecule, the “log10 CFU reduction in bacterial counts” value [2, 8] was 4.7 log10 CFU, the “mean Log10 CFU/catheter” value ([2]; rebound treatment regimen, Day 7 (before treatment)) was 6.82 Log10 CFU/catheter and the “mean Log10 CFU/catheter” value [2, 9] was 2.20 Log10 CFU/catheter. For the same molecule, the “mean Log10 CFU/catheter” value [2, 10] was 2.10 Log10 CFU/catheter, the “log reduction in bacterial colony counts at the catheter site” value ([2]; mouse, in vivo) was 4.6 log and the “mean Log10 CFU/catheter” value [3, 11] was 7.03 Log10 CFU/catheter. For the same molecule, the “log10 CFU reduction in bacterial counts” value ([3]; following 7 days of treatment) was 2.4 log10 CFU, the “log10 CFU reduction in bacterial counts” value ([3]; following 7 days untreated) was 4.4 log10 CFU and the “log10 CFU reduction in bacterial counts” value [3, 8] was 4.5 log10 CFU. For the same molecule, the “mean Log10 CFU/catheter” value [3, 12] was 7.03 Log10 CFU/catheter, the “mean Log10 CFU/catheter” value [3, 13] was 4.61 Log10 CFU/catheter and the “mean Log10 CFU/catheter” value [3, 9] was 2.61 Log10 CFU/catheter. The “mean Log10 CFU/catheter” value [3, 10] was 2.70 Log10 CFU/catheter, the “mean Log10 CFU/catheter” value [4, 11] was 7.01 Log10 CFU/catheter and the “log10 CFU reduction in bacterial counts” value ([4]; following 7 days of treatment) was 2.4 log10 CFU. The “log10 CFU reduction in bacterial counts” value ([4]; following 7 days untreated) was 4.9 log10 CFU, the “log10 CFU reduction in bacterial counts” value [4, 8] was 4.9 log10 CFU and the “mean Log10 CFU/catheter” value [4, 12] was 7.01 Log10 CFU/catheter. For the same molecule, the “mean Log10 CFU/catheter” value [4, 13] was 4.61 Log10 CFU/catheter, the “mean Log10 CFU/catheter” value [4, 9] was 2.10 Log10 CFU/catheter and the “mean Log10 CFU/catheter” value [4, 10] was 2.10 Log10 CFU/catheter. The “mean Log10 CFU/catheter” value [5, 11] was 6.81 Log10 CFU/catheter, the “mean Log10 CFU/catheter” value ([5]; 14-day treatment regimen, Day 21, IP bid, I 30 mg/kg, rifampicin+levofloxacin 20+25 mg/kg) was 2.30 Log10 CFU/catheter and the “log10 CFU reduction in bacterial counts at the catheter site” value ([5]; 14 consecutive days bid, I 30 mg/kg, rifampicin+levofloxacin 20+25 mg/kg) was 4.5 log10 CFU. For the same molecule, the “log10 CFU reduction in bacterial counts” value ([5]; rebound regimen, following 7 days of treatment) was 2.5 log10 CFU, the “mean Log10 CFU/catheter” value [5, 12] was 6.81 Log10 CFU/catheter and the “mean Log10 CFU/catheter” value [5, 13] was 4.26 Log10 CFU/catheter. The “mean Log10 CFU/catheter” value [5, 9] was 2.40 Log10 CFU/catheter, the “mean Log10 CFU/catheter” value [5, 10] was 2.45 Log10 CFU/catheter and the “mean Log10 CFU/catheter” value [6, 14] was 2.70 Log10 CFU/catheter. The “log reduction in bacterial counts at the catheter site” value ([6]; 14 consecutive days bid) was 4.3 log, the “mean Log10 CFU/catheter” value [7, 14] was 2.10 Log10 CFU/catheter and the “log10 CFU reduction in bacterial counts at the catheter site” value ([7]; 14 consecutive days bid) was 4.9 log10 CFU.
